# How the values were obtained:
# Test in all cases: Antibacterial screen at 200 μg/mL (cell density vs control)
# Type in all cases: cell-based
# Settings in all cases: peptide 200 μg/mL, CAMHB, 5 × 10^5 CFU/mL, 37°C, 12 h, OD600; control (no AMP) = 1; three biological replicates
# [1] = tested on: Acinetobacter baumannii ATCC 19606
# Description: (§1) Eight bacterial strains were utilized in the antibacterial experiment. S. aureus ATCC 12600, B. subtilis ATCC 23857, E. coli ATCC 11775, and A. baumannii ATCC 19606 were purchased from Shanghai Beinuo Biology. M. luteus ATCC 4698 and S. bongori ATCC43975 were purchased from Shanghai Beisi Biotechnology. V. owensii ems001 and V. alginolyticus xv22 from the intestines of diseased shrimps were isolated in our laboratory. All strains were cultured in the cation‐adjusted Mueller‐Hinton broth (CAMHB) at 37°C to the logarithmic growth phase (OD600 = 0.5). Then, bacteria were gradient‐diluted using fresh CAMHB to a bacterial density of 5 × 10^5 CFU/mL. Antibacterial experiments were performed in a 96‐well plate with 200 μg/mL final peptide concentration. Four experimental groups were set up, including a blank control (200 μL CAMHB), a negative control (180 μL CAMHB plus 20 μL peptide), a positive control (180 μL bacterial culture plus 20 μL ultrapure water), and an experimental group (180 μL bacterial culture plus 20 μL peptide). Three biological replicates were conducted for each group, and OD600 values were measured after incubation at 37°C for 12 h. Every observed value was removed from the blank control group value. The value of the experimental group was then subtracted from the value of the negative control group therefore eradicating the effect of the peptide on the OD measurement. Student's t‐test allowed the estimation of a notable variation between the experimental and positive groups using a p‐value of 0.05 as the limit. […] The MIC of a peptide against a bacterium was determined as the minimum peptide concentration at which there was no visible bacterial growth.
# [2] = tested on: Bacillus subtilis ATCC 23857
# Description: as §1
# [3] = tested on: Escherichia coli ATCC 11775
# Description: as §1
# [4] = tested on: Micrococcus luteus ATCC 4698
# Description: as §1
# [5] = tested on: Salmonella bongori ATCC 43975
# Description: as §1
# [6] = tested on: Staphylococcus aureus ATCC 12600
# Description: as §1
# [7] = tested on: Vibrio alginolyticus xv22
# Description: as §1
# Vibrio owensii ems001 = tested on: Vibrio owensii ems001
# Description: as §1
Sequence,"cell density relative to control, A. baumannii ATCC 19606 [1]","cell density relative to control, B. subtilis ATCC 23857 [2]","cell density relative to control, E. coli ATCC 11775 [3]","cell density relative to control, M. luteus ATCC 4698 [4]","cell density relative to control, S. bongori ATCC 43975 [5]","cell density relative to control, S. aureus ATCC 12600 [6]","cell density relative to control, V. alginolyticus xv22 [7]","cell density relative to control, V. owensii ems001 (Vibrio owensii ems001)"
"MSCDLQKVRGCLPRLIVHK [Cand-142, chemically synthesized candidate AMP predicted from marine biofilm bacteria]",1,1,1,1,0.989,0.941,1,1
"MLRRIGRMWRKLHPHGQ [Cand-10, chemically synthesized candidate AMP predicted from marine biofilm bacteria]",0.009,0.032,0.001,0.001,0.009,0.007,0.001,0.041
"MWAVARGRR [Cand-195, chemically synthesized candidate AMP predicted from marine biofilm bacteria]",1,0.676,1,0.987,1,0.945,1,0.958
"MKGLSKCVTHVVTAA [Cand-115, chemically synthesized candidate AMP predicted from marine biofilm bacteria]",1,1,1,1,0.935,0.907,1,0.994
"MSPRICSVISCLMKLRC [Cand-11, chemically synthesized candidate AMP predicted from marine biofilm bacteria]",0.023,1,0.967,0.931,0.522,0.019,0.018,0.023
"MCTRSCRPNLVKC [Cand-47, chemically synthesized candidate AMP predicted from marine biofilm bacteria]",0.895,1,1,1,0.835,1,1,1
"MCRWWPDWWHHRWWHCRGCCRFCRG [Cand-111, chemically synthesized candidate AMP predicted from marine biofilm bacteria]",1,1,0.669,1,0.794,0.202,0.477,0.357
"MKRLKKCVLSSLSI [Cand-126, chemically synthesized candidate AMP predicted from marine biofilm bacteria]",0.191,0.301,0.448,0,0.299,0,0.039,1
"MRPSMCRIGGRL [Cand-38, chemically synthesized candidate AMP predicted from marine biofilm bacteria]",0.836,0.805,0.861,1,1,0.771,1,1
"MAWISTRIACCCSTRLRRRIRTCSTSFCR [Cand-218, chemically synthesized candidate AMP predicted from marine biofilm bacteria]",0.029,0.004,0.021,0.052,0.938,0,0.049,0.001
"MKALRRFLSCKVCSHALN [Cand-160, chemically synthesized candidate AMP predicted from marine biofilm bacteria]",0.001,0,0.406,0.638,0.072,0,0.001,0.442
"MGAVCRMGSLPCLIPRGAIRLG [Cand-198, chemically synthesized candidate AMP predicted from marine biofilm bacteria]",0.765,1,0.844,1,0.827,0.817,0.891,0.904
"MVKLLKKMVSLYH [Cand-122, chemically synthesized candidate AMP predicted from marine biofilm bacteria]",0.907,0.002,0.642,0.728,0.455,0,1,0.188

# Source: article PMC11683478, “Bioprospecting of culturable marine biofilm bacteria for novel antimicrobial peptides” (iMeta, 2024)
